The source of these data is patent publication US8574563B2 (Bristol-Myers Squibb Company, priority 2006, dated 2013).

One may read the EC50 as the concentration giving half of the maximal effect.

For one assay, the system named is HCV 1b-377-neo replicon cells. In words: HCV replicon assay, HCV 1b-377-neo replicon cells (1b FRET). The settings on record: HCV 1b-377-neo replicon cells; HCV 1b genotype; read-out: EC50 range against HCV 1b (Table 2, Range). Type of assay: cell-based, Hepatitis C virus genotype 1b. The method, boiled down:
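Compounds tested in HCV genotype 1b-377-neo replicon cells with a FRET read-out. Cells resistant to a reference NS5A inhibitor through a Y2065H NS5A mutation were run alongside wild-type cells.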
In general terms: Replicon systems follow genome replication, usually without infectious particles.
As for `CCN(CC)[C@@H](C(=O)N1CCC[C@H]1c1ncc(-c2ccc(-c3ccc(-c4cnc([C@@H]5CCCN5C(=O)[C@@H]5CCCO5)[nH]4)cc3)cc2)[nH]1)c1ccccc1` [Example 106, (1R)-N,N-diethyl-2-oxo-1-phenyl-2-((2S)-2-(5-(4′-(2-((2S)-1-((2S)-tetrahydro-2-furanylcarbonyl)-2-pyrrolidinyl)-1H-imidazol-5-yl)-4-biphenylyI)-1H-imidazol-2-yl)-1-pyrrolidinyl)ethanamine], the half-maximal effective concentration (EC50) was in the range of 0.001 to 0.999 nM.

Staying with this assay, now noted: Hepatitis C virus, HCV 1b-377-neo replicon cells; HCV 1b genotype; read-out: EC50 range against HCV 1b (Table 2, Range).
For `COC(=O)N[C@@H](C(=O)N1CCC[C@H]1c1ncc(-c2ccc(-c3ccc(-c4cnc([C@@H]5CCCN5C(=O)[C@H](NC(=O)OC)C5CC5)[nH]4)cc3)cc2)[nH]1)C1CC1` [Example M22, dimethyl (4,4′-biphenyldiylbis(1H-imidazole-5,2-diyl(2S)-2,1-pyrrolidinediyl((1R)-1-cyclopropyl-2-oxo-2,1-ethanediyl)))biscarbamate], the EC50 lay in the range of 1000 to 10000 nM. Still for that read-out and setting: then `CC[C@H](C(=O)N1CCC[C@H]1c1ncc(-c2ccc(-c3ccc(-c4cnc([C@@H]5CCCN5C(=O)[C@@H](NC(=O)OC)C(C)C)[nH]4)cc3)cc2)[nH]1)N(CC)CC` [Example M85, methyl ((1S)-1-(((2S)-2-(5-(4′-(2-((2S)-1-((2R)-2-(diethylamino)butanoyl)-2-pyrrolidinyl)-1H-imidazol-5-yl)-4-biphenylyl)-1H-imidazol-2-yl)-1-pyrrolidinyl)carbonyl)-2-methylpropyl)carbamate], with 1 to 99 nM; and `CCC[C@H](NC(=O)OC)C(=O)N1CCC[C@H]1c1ncc(-c2ccc(-c3ccc(-c4cnc([C@@H]5CCCN5C(=O)[C@@H](c5ccccc5)N(CC)CC)[nH]4)cc3)cc2)[nH]1` [Example M62, methyl ((1S)-1-(((2S)-2-(5-(4′-(2-((2S)-1-((2R)-2-(diethylamino)-2-phenylacetyl)-2-pyrrolidinyl)-1H-imidazol-5-yl)-4-biphenylyl)-1H-imidazol-2-yl)-1-pyrrolidinyl)carbonyl)butyl)carbamate], with 1 to 99 nM; and `COC(=O)N[C@@H](Cc1ccc(O)cc1)C(=O)N1CCC[C@H]1c1ncc(-c2ccc(-c3ccc(-c4cnc([C@@H]5CCCN5C(=O)[C@@H](NC(=O)OC)C(C)C)[nH]4)cc3)cc2)[nH]1` [cj-111, methyl ((1S)-1-(4-hydroxybenzyl)-2-((2S)-2-(5-(4′-(2-((2S)-1-((2S)-2-((methoxycarbonyl)amino)-3-methylbutanoyl)-2-pyrrolidinyl)-1H-imidazol-5-yl)-4-biphenylyl)-1H-imidazol-2-yl)-1-pyrrolidinyl)-2-oxoethyl)carbamate], with 0.001 to 0.999 nM. The same measure, in the same setting: for `COC(=O)N[C@@H](C(=O)N1[C@H](c2ncc(-c3ccc(-c4ccc(-c5cnc([C@@H]6C[C@@H]7C[C@@H]7N6C(=O)[C@H](NC(=O)OC)C(C)C)[nH]5)cc4)cc3)[nH]2)C[C@@H]2C[C@@H]21)C(C)C` [Example M123, methyl ((1R)-1-(((1S,3S,5S)-3-(5-(4′-(2-((1S,3S,5S)-2-((2R)-2-((methoxycarbonyl)amino)-3-methylbutanoyl)-2-azabicyclo[3.1.0]hex-3-yl)-1H-imidazol-5-yl)-4-biphenylyl)-1H-imidazol-2-yl)-2-azabicyclo[3.1.0]hex-2-yl)carbonyl)-2-methylpropyl)carbamate] the value was 1000 to 10000 nM; for `COC(=O)N[C@H](C(=O)N1CCC[C@H]1c1ncc(-c2ccc(-c3ccc(-c4cnc([C@@H]5CCCN5C(=O)[C@@H](NC5=NCCS5)C(C)C)[nH]4)cc3)cc2)[nH]1)C(C)C` [cj-15c, methyl ((1S)-1-(((2S)-2-(5-(4′-(2-((2S)-1-(N-(4,5-dihydro-1,3-thiazol-2-yl)-L-valyl)-2-pyrrolidinyl)-1H-imidazol-5-yl)-4-biphenylyl)-1H-imidazol-2-yl)-1-pyrrolidinyl)carbonyl)-2-methylpropyl)carbamate], 0.001 to 0.999 nM.
